Test results as given in patent publication US6156789A, “Method for treating abnormal cell proliferation in the brain” (Rhone-Poulenc Rorer S.A., priority 1998, dated 2000).
Read-outs that look alike come from different tables or passages of the source.

What was measured:
[1] = Plasma kinetics of Compound A after i.v. injection in mice (HPLC); type: in vivo, C3H/HeN female mice; conditions: for Cmax at 2 min: read-out: observed maximum plasma concentration
Experimental: Mammary C/16 adenocarcinomas were implanted in C3H/HeN female mice. At least 7 days later, 4α,10β-diacetoxy-2α-benzoyloxy-5β,20-epoxy-1β-hydroxy-7β,8β-methylene-9-oxo-19-nor-11-taxen-13α-yl (2R,3S)-3-tert-butoxycarbonylamino-2-hydroxy-3-phenylpropionate ("Compound A") was administered to groups of female mice at doses of 9.5, 15.4, 24.8, 40 or 60.5 mg/kg by intravenous injection under 0.4 or 0.5 ml/injection over 15 seconds. The body weight and date of implantation were recorded for each mouse. Blood and tissue samples were taken 2, 5, 15, 30 and 45 minutes and 1, 4, 14, 24 and 48 hours, after administration. The plasma was separated from the blood samples at 4° C. and frozen immediately. The tissue and tumors were weighed and frozen immediately (-20° C.).
The plasma and tissue samples were then analyzed for the concentration of Compound A. The plasma was assayed by high pressure liquid chromatography with spectrophotometric detection. For the tissue, liver, heart, kidney, lung, spleen and tumor tissue, samples were assayed by a first method, while a second method was used for the brain tissue analyzed. In the first method, 0.2 g of tissue was combined with 2 ml of sodium phosphate buffer 0.1 M (pH:7) and homogenized. The homogenate was centrifuged and 0.5 ml of supernatant was injected into the chromatographic column. In the second method, 10 μl of standard solution was combined with 0.2 g of brain tissue. 2 ml of methanol/5% perchloric acid (50/50) were added and the mixture was homogenized. The homogenate was centrifuged and 100 μl of supernatant was injected into the chromatographic column.

[2] = Highest non toxic dose in the mouse; conditions: in vivo, iv, read-out: highest non toxic dose (HNTD)

CC(=O)O[C@H]1C(=O)[C@]23C[C@H]2C[C@H]2OC[C@@]2(OC(C)=O)[C@H]3[C@H](OC(=O)c2ccccc2)[C@]2(O)C[C@H](OC(=O)[C@H](O)[C@@H](NC(=O)OC(C)(C)C)c3ccccc3)C(C)=C1C2(C)C [Compound A, 4α,10β-diacetoxy-2α-benzoyloxy-5β,20-epoxy-1β-hydroxy-7β,8β-methylene-9-oxo-19-nor-11-taxen-13α-yl (2R,3S)-3-tert-butoxycarbonylamino-2-hydroxy-3-phenylpropionate]
kinetics in plasma and tumor tissue, linearity ([1]; 9.5 to 60.5 mg/kg i.v.): linear over the range studied
maximum plasma concentrations, dose linearity ([1]; 9.5 to 60.5 mg/kg i.v., 2 minutes): linear with respect to dose
Cmax at 2 min ([1]; mouse, plasma, iv, 9.5 mg/kg i.v., 2 minutes): 14000 ± 1000 ng/mL
Cmax at 2 min ([1]; mouse, plasma, iv, 15.4 mg/kg i.v., 2 minutes): 21000 ± 2000 ng/mL
Cmax at 2 min ([1]; mouse, plasma, iv, 24.8 mg/kg i.v., 2 minutes): 35000 ± 2000 ng/mL
Cmax at 2 min ([1]; mouse, plasma, iv, 40 mg/kg i.v., 2 minutes): 51000 ± 1000 ng/mL
Cmax at 2 min ([1]; mouse, plasma, iv, 60.5 mg/kg i.v., 2 minutes): 133000 ± 30000 ng/mL
AUC(0-t) at 4 h ([1]; mouse, plasma, iv, dose = 40 mg/kg): 35000 ng·h/mL
AUC(0-inf) ([1]; mouse, plasma, iv, dose = 40 mg/kg, read-out: AUC 0 to Infinity, Plasma): 58600 ng·h/mL
half-life ([1]; mouse, plasma, iv, dose = 40 mg/kg, read-out: t 1/2, Plasma (converted)): 4.4 h
MTD [2]: 40 mg/kg
